Assay results taken from patent US20260001914A1, “MACROCYCLIC PEPTIDES TARGETING KRAS” (Merck Sharp & Dohme LLC, priority 2022, published 2026).
*1 amine or outer side, *2 acyl side, *3 side chain or, on linkers, in order; H or OH if unused. Where a SMILES comes first, the peptide text is derived from it. [ ]: non-standard residue; d: D form. X34 = O=C(C[C@@H](Cc1ccccc1)C(=O)[*:2])C12CC(CN[*:1])(C1)C2; NMeNva(5-imidazol-1-yl) = CN[C@@H](CCCn1ccnc1)C(=O)O; Ala(pyrimidin-5-yl) = N[C@@H](Cc1cncnc1)C(=O)O; Phe(3-COOH) = N[C@@H](Cc1cccc(C(=O)O)c1)C(=O)O; X6 = O=C([C@H](Cc1cnn(C2COC2)c1)N[*:1])[*:2]; X11 = CC(C)(F)CC[C@H](N[*:1])C(=O)[*:2]; Nle(5,5-F2) = CC(F)(F)CC[C@H](N)C(=O)O; Phe(4-F) = N[C@@H](Cc1ccc(F)cc1)C(=O)O; 1Nal = N[C@@H](Cc1cccc2ccccc12)C(=O)O; NHCH2CH2SCH2CO = O=C(CSCCN[*:1])[*:2]; X21 = O=C([C@@H]1C[C@H]1CN[*:1])[*:2]; Phe(2-F) = N[C@@H](Cc1ccccc1F)C(=O)O; NMe3Pal = CN[C@@H](Cc1cccnc1)C(=O)O; X1 = O=C(C12CC(CN[*:1])(C1)C2)[*:2]; X56 = O=C(C12CC(N[*:1])(C1)C2)[*:2]; Ala(cPr) = N[C@@H](CC1CC1)C(=O)O; NMeF = CN[C@@H](Cc1ccccc1)C(=O)O; PhLac = O=C(O)[C@@H](O)Cc1ccccc1; 3Pal = N[C@@H](Cc1cccnc1)C(=O)O; 4Pal = N[C@@H](Cc1ccncc1)C(=O)O; d3Pal = N[C@H](Cc1cccnc1)C(=O)O; Cba = N[C@@H](CC1CCC1)C(=O)O; hLeu = CC(C)CC[C@H](N)C(=O)O; NMeA = CN[C@@H](C)C(=O)O; Nle = CCCC[C@H](N)C(=O)O; Nva = CCC[C@H](N)C(=O)O

The compounds below were run against KRAS-G12D protein (Homo sapiens, UniProt P01116, G12D) (assay: SOS-mediated nucleotide exchange assay (BODIPY-GDP / Tb-streptavidin TR-FRET)).
Chain of KRAS-G12D protein (P01116 1-188 isoform P01116-2 G12D): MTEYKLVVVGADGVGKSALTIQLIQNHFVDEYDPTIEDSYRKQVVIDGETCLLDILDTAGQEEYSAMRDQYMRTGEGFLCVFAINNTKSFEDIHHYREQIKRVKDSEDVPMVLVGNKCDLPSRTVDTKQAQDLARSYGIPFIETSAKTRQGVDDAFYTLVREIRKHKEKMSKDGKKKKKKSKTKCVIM
Format: biochemical
`CCCCC[C@@H]1NC(=O)[C@H](Cc2ccc(OC)cc2)NC(=O)[C@H](CC2CCC2)NC(=O)[C@H](Cc2ccc(N3CCC[C@@H]3CN)cc2)NC(=O)[C@H](CCCNC(=N)N)NC(=O)[C@H](Cc2ccccc2)NC(=O)CSC[C@@](C)(C(N)=O)NC(=O)[C@H](Cc2ccccc2)N(C)C1=O` [compound 391, cyclo(F-R~Phe4RamPyrr-cBuA-TyrOMe-Abp-NMeF-aMeCl-ClAc)] showed an EC50 of 6.78 nM.
Compound `C[C@H]1C(=O)N[C@@H](Cc2cncnc2)C(=O)N[C@@H](CC2CC2)C(=O)N[C@@H](Cc2ccccc2F)C(=O)N[C@@H](CCC(C)(C)F)C(=O)N(C)[C@@H](Cc2ccccc2)C(=O)NCC23CC(C2)(C3)C(=O)C[C@@H](Cc2ccccc2)C(=O)N1C` [compound 273, cyclo(CPhe-NMeA-PyrimAla-cPrA-Phe2F-hL3F-NMeF-amBCP)] (cyclo([Ala(cPr)][Phe(2-F)][X11][NMeF][X34][NMeA][Ala(pyrimidin-5-yl)])) has an EC50 of 1 nM.
With `CCCC[C@@H]1NC(=O)[C@H](Cc2ccncc2)NC(=O)[C@H](CCCNC(=N)N)NC(=O)[C@H](Cc2ccc(F)cc2)NC(=O)CSCCNC(=O)[C@H](Cc2ccccc2)N(C)C(=O)[C@H](CCCC)NC(=O)[C@H](Cc2ccc(OC)cc2)NC1=O` [compound 90, cyclo(Phe4F-R-4Pal-Nle-TyrOMe-Nle-NMeF-Cysteamine-ClAc)] (cyclo([4Pal][Nle]Y(Me)[Nle][NMeF][NHCH2CH2SCH2CO][Phe(4-F)]R)) the EC50 was 432 nM.
Compound `CC(C)CC[C@@H]1NC(=O)[C@H](Cc2ccccc2F)NC(=O)[C@H](CC2CC2)NC(=O)[C@H](Cc2cnn(C3COC3)c2)NC(=O)[C@H](C)N(C)C(=O)[C@H](Cc2ccccc2)OC(=O)C23CC(CNC(=O)[C@H](Cc4cccnc4)N(C)C1=O)(C2)C3` [compound 301, cyclo(FLac-NMeA-AlaPyz1Ox-cPrA-Phe2F-hL-NMe3Pal-amBCP)] (cyclo([Ala(cPr)][Phe(2-F)][hLeu][NMe3Pal][X1][PhLac][NMeA][X6])) has an EC50 of 2.17 nM.
In the case of `CCCC[C@@H]1NC(=O)[C@H](Cc2cccnc2)NC(=O)[C@H](CCCn2ccnc2)N(C)C(=O)[C@H](Cc2ccccc2)N(C)C(=O)[C@@H]2C[C@H]2CNC(=O)[C@H](Cc2cccnc2)N(C)C(=O)[C@H](CCCC)NC(=O)[C@H](Cc2ccccc2F)NC1=O` [compound 256, cyclo(NMeF-NMeNvaImid-3Pal-Nle-Phe2F-Nle-NMe3Pal-tamcPr)] (cyclo([3Pal][Nle][Phe(2-F)][Nle][NMe3Pal][X21][NMeF][NMeNva(5-imidazol-1-yl)])), the EC50 is reported as 7650 nM.
`CCCC[C@@H]1NC(=O)[C@H](Cc2ccccc2F)NC(=O)[C@H](CC2CCC2)NC(=O)[C@@H](Cc2cccnc2)NC(=O)[C@H](CCCNC(=N)N)NC(=O)[C@H](Cc2ccccc2)NC(=O)C23CC(C2)(C3)NC(=O)[C@H](Cc2cccnc2)N(C)C1=O` [compound 108, cyclo(F-R-d3Pal-cBuA-Phe2F-Nle-NMe3Pal-BCP)] (cyclo(FR[d3Pal][Cba][Phe(2-F)][Nle][NMe3Pal][X56])) gave an EC50 of 1140 nM.
With `CCCC[C@@H]1NC(=O)[C@H](Cc2cccnc2)NC(=O)[C@H](C)N(C)C(=O)[C@H](Cc2ccccc2)OC(=O)C23CC(CNC(=O)[C@H](Cc4cccnc4)N(C)C(=O)[C@H](CCC)NC(=O)[C@H](Cc4ccccc4F)NC1=O)(C2)C3` [compound 116, cyclo(FLac-NMeA-3Pal-Nle-Phe2F-Nva-NMe3Pal-amBCP)] (cyclo([3Pal][Nle][Phe(2-F)][Nva][NMe3Pal][X1][PhLac][NMeA])) the EC50 was 154 nM.
`C[C@H]1C(=O)N[C@@H](Cc2cncnc2)C(=O)N[C@@H](CC2CCC2)C(=O)N[C@@H](Cc2ccccc2F)C(=O)N[C@@H](CCC(C)(F)F)C(=O)N(C)[C@@H](Cc2ccccc2)C(=O)NCC23CC(C2)(C3)C(=O)O[C@@H](Cc2ccccc2)C(=O)N1C` [compound 224, cyclo(FLac-NMcA-PyrimAla-cBuA-Phe2F-Nle3F2-NMeF-amBCP)] (cyclo([Cba][Phe(2-F)][Nle(5,5-F2)][NMeF][X1][PhLac][NMeA][Ala(pyrimidin-5-yl)])) gave an EC50 of 2.39 nM.
Compound `CCCC[C@@H]1NC(=O)[C@H](CCCCN)NC(=O)[C@H](CCCNC(=N)N)NC(=O)[C@H](Cc2cccc3ccccc23)NC(=O)CSCCNC(=O)[C@H](Cc2ccccc2)N(C)C(=O)[C@H](CCCC)NC(=O)[C@H](Cc2cccc(C(=O)O)c2)NC1=O` [compound 197, cyclo(1Nal-R-K-Nle-Phe3COOH-Nle-NMeF-Cysteamine)-ClAc] (cyclo([1Nal]RK[Nle][Phe(3-COOH)][Nle][NMeF][NHCH2CH2SCH2CO])) has an EC50 of 2120 nM.
